Experimental data from patent US7118895B2, “Process for producing aglycon by using diglycosidase and flavor-improved food containing the aglycon and converting agent to be used in the process” (Amano Enzyme Inc., priority 2000, dated 2006).

System: Crude diglycosidase
Assay: Examination of temperature in the conversion into isoflavone aglycons by diglycosidase using soybean materials
Type: biochemical, Penicillium multicolor IAM7153
Design: Decomposition efficiency of glycitin family in roasted soy flour / Decomposition efficiency of daidzin family in roasted soy flour / Decomposition efficiency of genistin family in soymilk / Decomposition efficiency of daidzin family in soymilk / Decomposition efficiency of glycitin family in defatted soybean / Decomposition efficiency of daidzin family in defatted soybean: concentration or dose not given beside the values
Details: for maximum isolation of aglycons: reaction at 55° C. for 6 hours
Method in brief: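 Temperature series (30-80° C.) of crude diglycosidase, diluted to 1.88 AU/mL in 20 mM acetate pH 4.0, acting on roasted soy flour, soymilk, defatted soybean or soy protein concentrate. Samples quenched with ethanol after 0-6 h, centrifuged, filtered and analyzed by HPLC for glycosides versus aglycons.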

[1] = 30° C., heat treatment of enzyme no, reaction time 1 h
[2] = 30° C., heat treatment of enzyme no, reaction time 3 h
[3] = 30° C., heat treatment of enzyme no, reaction time 6 h
[4] = 30° C., heat treatment of enzyme yes, reaction time 6 h
[5] = 45° C., heat treatment of enzyme no, reaction time 0 h
[6] = 45° C., heat treatment of enzyme no, reaction time 1 h
[7] = 45° C., heat treatment of enzyme no, reaction time 3 h
[8] = 45° C., heat treatment of enzyme no, reaction time 6 h
[9] = 45° C., heat treatment of enzyme yes, reaction time 6 h
[10] = 55° C., heat treatment of enzyme no, reaction time 1 h
[11] = 55° C., heat treatment of enzyme no, reaction time 3 h
[12] = 55° C., heat treatment of enzyme no, reaction time 6 h
[13] = 55° C., heat treatment of enzyme yes, reaction time 6 h
[14] = 65° C., heat treatment of enzyme no, reaction time 0 h
[15] = 65° C., heat treatment of enzyme no, reaction time 1 h
[16] = 65° C., heat treatment of enzyme no, reaction time 3 h
[17] = 65° C., heat treatment of enzyme no, reaction time 6 h
[18] = 65° C., heat treatment of enzyme yes, reaction time 6 h
[19] = 80° C., heat treatment of enzyme no, reaction time 0 h
[20] = 80° C., heat treatment of enzyme no, reaction time 1 h
[21] = 80° C., heat treatment of enzyme no, reaction time 3 h
[22] = 80° C., heat treatment of enzyme no, reaction time 6 h
[23] = 80° C., heat treatment of enzyme yes, reaction time 6 h
[24] = 30° C., heat treatment of enzyme no, reaction time 0 h
[25] = 30 °C, heat treatment of enzyme: no, 0 h
[26] = 30 °C, heat treatment of enzyme: no, 1 h
[27] = 30 °C, heat treatment of enzyme: no, 3 h
[28] = 30 °C, heat treatment of enzyme: no, 6 h
[29] = 30 °C, heat treatment of enzyme: yes, 6 h
[30] = 45 °C, heat treatment of enzyme: no, 0 h
[31] = 45 °C, heat treatment of enzyme: no, 1 h
[32] = 45 °C, heat treatment of enzyme: no, 3 h
[33] = 45 °C, heat treatment of enzyme: no, 6 h
[34] = 45 °C, heat treatment of enzyme: yes, 6 h
[35] = 55° C., heat treatment of enzyme no, reaction time 0 h
[36] = 55 °C, heat treatment of enzyme: no, 0 h
[37] = 55 °C, heat treatment of enzyme: no, 1 h
[38] = 55 °C, heat treatment of enzyme: no, 3 h
[39] = 55 °C, heat treatment of enzyme: no, 6 h
[40] = 55 °C, heat treatment of enzyme: yes, 6 h
[41] = 65 °C, heat treatment of enzyme: no, 0 h
[42] = 65 °C, heat treatment of enzyme: no, 1 h
[43] = 65 °C, heat treatment of enzyme: no, 3 h
[44] = 65 °C, heat treatment of enzyme: no, 6 h
[45] = 65 °C, heat treatment of enzyme: yes, 6 h
[46] = 80 °C, heat treatment of enzyme: no, 0 h
[47] = 80 °C, heat treatment of enzyme: no, 1 h
[48] = 80 °C, heat treatment of enzyme: no, 3 h
[49] = 80 °C, heat treatment of enzyme: no, 6 h
[50] = 80 °C, heat treatment of enzyme: yes, 6 h

O=c1c(-c2ccc(O)cc2)coc2cc(O)cc(O)c12 [genistein]
Decomposition efficiency of genistin family in defatted soybean [1]: 47.4%
Decomposition efficiency of genistin family in defatted soybean [2]: 50.2%
Decomposition efficiency of genistin family in defatted soybean [3]: 46.6%
Decomposition efficiency of genistin family in defatted soybean [4]: 50.2%
Decomposition efficiency of genistin family in defatted soybean [5]: 14.5%
Decomposition efficiency of genistin family in defatted soybean [6]: 49.2%
Decomposition efficiency of genistin family in defatted soybean [7]: 51.8%
Decomposition efficiency of genistin family in defatted soybean [8]: 54.6%
Decomposition efficiency of genistin family in defatted soybean [9]: 50.4%
Decomposition efficiency of genistin family in defatted soybean [10]: 50.5%
Decomposition efficiency of genistin family in defatted soybean [11]: 53.7%
Decomposition efficiency of genistin family in defatted soybean [12]: 56.5%
Decomposition efficiency of genistin family in defatted soybean [13]: 51.9%
Decomposition efficiency of genistin family in defatted soybean [14]: 14.5%
Decomposition efficiency of genistin family in defatted soybean [15]: 49.9%
Decomposition efficiency of genistin family in defatted soybean [16]: 51.8%
Decomposition efficiency of genistin family in defatted soybean [17]: 54.5%
Decomposition efficiency of genistin family in defatted soybean [18]: 30.7%
Decomposition efficiency of genistin family in defatted soybean [19]: 14.5%
Decomposition efficiency of genistin family in defatted soybean [20]: 44.9%
Decomposition efficiency of genistin family in defatted soybean [21]: 43.3%
Decomposition efficiency of genistin family in defatted soybean [22]: 41.3%
Decomposition efficiency of genistin family in defatted soybean [23]: 19.6%
maximum isolation of aglycons (concentrated soybean protein): about 61%
maximum isolation of aglycons (defatted soybean): about 57%
maximum isolation of aglycons (soy flour): about 74%
maximum isolation of aglycons (soymilk): about 80%

O=c1c(-c2ccc(O)cc2)coc2cc(O[C@@H]3O[C@H](CO)[C@@H](O)[C@H](O)[C@H]3O)cc(O)c12 [genistin]
Decomposition efficiency of genistin family in concentrated soybean protein [24]: 49.8%
Decomposition efficiency of genistin family in defatted soybean [24]: 38.0%
Decomposition efficiency of genistin family in concentrated soybean protein [1]: 41.1%
Decomposition efficiency of genistin family in defatted soybean [1]: not detected
Decomposition efficiency of genistin family in concentrated soybean protein [2]: 30.3%
Decomposition efficiency of genistin family in defatted soybean [2]: not detected
Decomposition efficiency of genistin family in concentrated soybean protein [3]: 19.7%
Decomposition efficiency of genistin family in defatted soybean [3]: 7.6%
Decomposition efficiency of genistin family in concentrated soybean protein [4]: 51.8%
Decomposition efficiency of genistin family in defatted soybean [4]: not detected
Decomposition efficiency of genistin family in roasted soy flour [25]: 49.7%
Decomposition efficiency of genistin family in soymilk [25]: 30.7%
Decomposition efficiency of genistin family in roasted soy flour [26]: 25.7%
Decomposition efficiency of genistin family in soymilk [26]: not detected
Decomposition efficiency of genistin family in roasted soy flour [27]: 12.0%
Decomposition efficiency of genistin family in soymilk [27]: not detected
Decomposition efficiency of genistin family in roasted soy flour [28]: 5.5%
Decomposition efficiency of genistin family in soymilk [28]: not detected
Decomposition efficiency of genistin family in roasted soy flour [29]: 50.3%
Decomposition efficiency of genistin family in soymilk [29]: 31.2%
Decomposition efficiency of genistin family in concentrated soybean protein [5]: 49.7%
Decomposition efficiency of genistin family in defatted soybean [5]: 37.0%
Decomposition efficiency of genistin family in concentrated soybean protein [6]: 22.2%
Decomposition efficiency of genistin family in defatted soybean [6]: 0.9%
Decomposition efficiency of genistin family in concentrated soybean protein [7]: 15.6%
Decomposition efficiency of genistin family in defatted soybean [7]: 1.0%
Decomposition efficiency of genistin family in concentrated soybean protein [8]: 5.3%
Decomposition efficiency of genistin family in defatted soybean [8]: 1.0%
Decomposition efficiency of genistin family in concentrated soybean protein [9]: 54.5%
Decomposition efficiency of genistin family in defatted soybean [9]: 1.3%
Decomposition efficiency of genistin family in roasted soy flour [30]: 50.2%
Decomposition efficiency of genistin family in soymilk [30]: 31.0%
Decomposition efficiency of genistin family in roasted soy flour [31]: 3.7%
Decomposition efficiency of genistin family in soymilk [31]: not detected
Decomposition efficiency of genistin family in roasted soy flour [32]: 5.6%
Decomposition efficiency of genistin family in soymilk [32]: not detected
Decomposition efficiency of genistin family in roasted soy flour [33]: 1.2%
Decomposition efficiency of genistin family in soymilk [33]: not detected
Decomposition efficiency of genistin family in roasted soy flour [34]: 51.7%
Decomposition efficiency of genistin family in soymilk [34]: 34.4%
Decomposition efficiency of genistin family in concentrated soybean protein [35]: 50.1%
Decomposition efficiency of genistin family in defatted soybean [35]: 38.0%
Decomposition efficiency of genistin family in concentrated soybean protein [10]: 7.0%
Decomposition efficiency of genistin family in defatted soybean [10]: 0.0%
Decomposition efficiency of genistin family in concentrated soybean protein [11]: 0.8%
Decomposition efficiency of genistin family in defatted soybean [11]: 0.0%
Decomposition efficiency of genistin family in concentrated soybean protein [12]: not detected
Decomposition efficiency of genistin family in defatted soybean [12]: 0.0%
Decomposition efficiency of genistin family in concentrated soybean protein [13]: 52.3%
Decomposition efficiency of genistin family in defatted soybean [13]: 0.0%
Decomposition efficiency of genistin family in roasted soy flour [36]: 49.7%
Decomposition efficiency of genistin family in soymilk [36]: 31.6%
Decomposition efficiency of genistin family in roasted soy flour [37]: 1.2%
Decomposition efficiency of genistin family in soymilk [37]: not detected
Decomposition efficiency of genistin family in roasted soy flour [38]: not detected
Decomposition efficiency of genistin family in soymilk [38]: not detected
Decomposition efficiency of genistin family in roasted soy flour [39]: not detected
Decomposition efficiency of genistin family in soymilk [39]: not detected
Decomposition efficiency of genistin family in roasted soy flour [40]: 54.0%
Decomposition efficiency of genistin family in soymilk [40]: 37.4%
Decomposition efficiency of genistin family in concentrated soybean protein [14]: 49.8%
Decomposition efficiency of genistin family in defatted soybean [14]: 37.0%
Decomposition efficiency of genistin family in concentrated soybean protein [15]: not detected
Decomposition efficiency of genistin family in defatted soybean [15]: 0.0%
Decomposition efficiency of genistin family in concentrated soybean protein [16]: not detected
Decomposition efficiency of genistin family in defatted soybean [16]: 1.8%
Decomposition efficiency of genistin family in concentrated soybean protein [17]: not detected
Decomposition efficiency of genistin family in defatted soybean [17]: 3.3%
Decomposition efficiency of genistin family in concentrated soybean protein [18]: 50.8%
Decomposition efficiency of genistin family in defatted soybean [18]: 28.2%
Decomposition efficiency of genistin family in roasted soy flour [41]: 49.7%
Decomposition efficiency of genistin family in soymilk [41]: 30.7%
Decomposition efficiency of genistin family in roasted soy flour [42]: not detected
Decomposition efficiency of genistin family in soymilk [42]: not detected
Decomposition efficiency of genistin family in roasted soy flour [43]: not detected
Decomposition efficiency of genistin family in soymilk [43]: not detected
Decomposition efficiency of genistin family in roasted soy flour [44]: not detected
Decomposition efficiency of genistin family in soymilk [44]: not detected
Decomposition efficiency of genistin family in roasted soy flour [45]: 50.7%
Decomposition efficiency of genistin family in soymilk [45]: 44.4%
Decomposition efficiency of genistin family in concentrated soybean protein [19]: 49.7%
Decomposition efficiency of genistin family in defatted soybean [19]: 37.0%
Decomposition efficiency of genistin family in concentrated soybean protein [20]: 29.6%
Decomposition efficiency of genistin family in defatted soybean [20]: 9.6%
Decomposition efficiency of genistin family in concentrated soybean protein [21]: 30.3%
Decomposition efficiency of genistin family in defatted soybean [21]: 22.1%
Decomposition efficiency of genistin family in concentrated soybean protein [22]: 32.3%
Decomposition efficiency of genistin family in defatted soybean [22]: 35.3%
Decomposition efficiency of genistin family in concentrated soybean protein [23]: 51.9%
Decomposition efficiency of genistin family in defatted soybean [23]: 57.8%
Decomposition efficiency of genistin family in roasted soy flour [46]: 50.2%
Decomposition efficiency of genistin family in soymilk [46]: 31.0%
Decomposition efficiency of genistin family in roasted soy flour [47]: 7.8%
Decomposition efficiency of genistin family in soymilk [47]: 10.6%
Decomposition efficiency of genistin family in roasted soy flour [48]: 9.1%
Decomposition efficiency of genistin family in soymilk [48]: 24.3%
Decomposition efficiency of genistin family in roasted soy flour [49]: 18.4%
Decomposition efficiency of genistin family in soymilk [49]: 43.9%
Decomposition efficiency of genistin family in roasted soy flour [50]: 52.2%
Decomposition efficiency of genistin family in soymilk [50]: 64.5%
